Measured values taken from paper PMC11555526, “Development of 2-Aminoadenine-Based Proteolysis-Targeting Chimeras (PROTACs) as Novel Potent Degraders of Monopolar Spindle 1 and Aurora Kinases” (ACS Pharmacology & Translational Science, 2024).
Values joined by “and” are separate entries in the source; they are usually repeats but may differ in a detail not shown here. Identical values can stand only once.

Experiments:
[1] = target: T1, AURKB (MV4-11^AURKB-HiBiT cells) (Homo sapiens, UniProt Q96GD4); test: HiBiT assay, AURKB degradation; format: cell-based; conditions: 6 h treatment; for DC50: read-out: DC50 (half-maximal degradation concentration) AURKB
T1 construct: expressed in transfected cells; host or cells: MV4-11, lentiviral transduction (pRRL-PGK vector)
Summary of the method: (§1)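 MV4-11 lines stably expressing HiBiT-tagged AURKA, AURKB or TTK (lentiviral) were treated with serial compound dilutions for the indicated times. Remaining tagged protein was read by lytic HiBiT luminescence, and DC50 was fitted with a four-parameter dose–response equation using concentrations showing sigmoidal behaviour.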

[2] = target: T2, AURKA (MV4-11^AURKA-HiBiT cells) (Homo sapiens, UniProt O14965); test: HiBiT assay, AURKA degradation; format: cell-based; conditions: for Dmax (maximal degradation) AURKA / DC50: 6 h treatment, MV4-11^AURKA-HiBiT cells; for DC50: read-out: DC50 (half-maximal degradation concentration) AURKA
T2 construct: expressed in transfected cells; host or cells: MV4-11, lentiviral transduction
T2 sequence (O14965 1-403): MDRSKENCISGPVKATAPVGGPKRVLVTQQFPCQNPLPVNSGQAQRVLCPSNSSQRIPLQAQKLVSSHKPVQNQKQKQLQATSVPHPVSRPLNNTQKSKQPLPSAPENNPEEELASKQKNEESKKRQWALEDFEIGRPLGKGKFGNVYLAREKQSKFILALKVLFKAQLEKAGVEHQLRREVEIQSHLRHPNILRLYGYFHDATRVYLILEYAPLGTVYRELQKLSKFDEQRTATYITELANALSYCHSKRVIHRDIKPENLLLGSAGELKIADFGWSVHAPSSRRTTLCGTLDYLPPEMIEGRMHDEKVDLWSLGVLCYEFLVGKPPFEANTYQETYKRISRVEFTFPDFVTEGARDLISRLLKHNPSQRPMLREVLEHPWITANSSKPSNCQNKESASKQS
Summary of the method: as §1

T1 sequence (Q96GD4 1-345 isoform Q96GD4-5): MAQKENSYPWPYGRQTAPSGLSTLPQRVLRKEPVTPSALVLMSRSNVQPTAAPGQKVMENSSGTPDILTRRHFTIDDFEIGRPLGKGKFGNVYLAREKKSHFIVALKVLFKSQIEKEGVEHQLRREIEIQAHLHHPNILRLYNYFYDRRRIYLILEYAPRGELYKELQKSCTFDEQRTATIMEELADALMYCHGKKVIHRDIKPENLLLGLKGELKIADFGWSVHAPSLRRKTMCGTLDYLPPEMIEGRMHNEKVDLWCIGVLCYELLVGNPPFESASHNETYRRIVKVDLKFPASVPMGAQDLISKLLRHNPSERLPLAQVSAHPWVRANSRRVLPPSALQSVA

SMILES | Dmax (maximal degradation) AURKB [1] [%] | DC50 [1] [nM] | Dmax (maximal degradation) AURKA [2] | DC50 [2] | efficiency of AURKA degradation (Dmax) relative to AURKB and TTK ([2]; HiBiT, 6 h) | selectivity of AURKA degradation (DC50) relative to AURKB and TTK ([2]; HiBiT, 6 h) | DC50 (half-maximal degradation concentration) AURKB [1]
CC(C)S(=O)(=O)c1ccccc1Nc1nc(Nc2ccc(N3CCN(C(=O)CCCC(=O)Nc4cccc5c4C(=O)N(C4CCC(=O)NC4=O)C5=O)CC3)cc2)nc2[nH]cnc12 (stereo not drawn) [Compound 14] | 38.80 | 168 | 50.10% | 46 nM |  |  | 
CC(C)S(=O)(=O)c1ccccc1Nc1nc(Nc2ccc(N3CCN(C(=O)CNC(=O)CCCC(=O)Nc4cccc5c4C(=O)N(C4CCC(=O)NC4=O)C5=O)CC3)cc2)nc2[nH]cnc12 (stereo not drawn) [Compound 20] | 29.40 | 248 | 71% and 70.70% | 68 nM and 67.7 nM | 1.5–2.4 times | 3.7–4.2 fold | 
Cc1ncsc1-c1ccc(CNC(=O)[C@@H]2C[C@@H](O)CN2C(=O)[C@@H](NC(=O)CCCC(=O)N2CCN(c3ccc(Nc4nc(Nc5ccccc5S(=O)(=O)C(C)C)c5nc[nH]c5n4)cc3)CC2)C(C)(C)C)cc1 [Compound 44] | 20.30 |  | 35.20% | 1700 nM |  |  | – (compounds with degradation less than 25% were not calculated and reported as “–”)
Cc1ncsc1-c1ccc(CNC(=O)[C@@H]2C[C@@H](O)CN2C(=O)[C@@H](NC(=O)COCCOCC(=O)N2CCN(c3ccc(Nc4nc(Nc5ccccc5S(=O)(=O)C(C)C)c5nc[nH]c5n4)cc3)CC2)C(C)(C)C)cc1 [Compound 49] | 32.17 | 3690 | 38.00% | 814 nM |  |  | 
